According to US20090087440A1, “Methods for Treating Cancer” (SCHERING CORPORATION, priority 2001, published 2009):
Entries after “also recorded” stand apart in the source; their conditions may differ.

Columns and labels:
[1] = test system: C26-6CK tumor-infiltrating dendritic cells; experiment: IL-12 p70 and TNFα ELISA in supernatants of activated C26-6CK TIDC (Example II); assay type: cell-based, mouse
[2] = test system: C26-6CK tumor-infiltrating dendritic cells; experiment: Mixed leukocyte reaction with activated C26-6CK TIDC (Example III); assay type: cell-based, mouse; settings: overnight activation, 5 days with allogeneic T cells
C26 tumor = experiment: Therapeutic effect in the C26 tumor model (Example VI); assay type: in vivo, BALB/c mice
Source text: Control antibody was purified GL113 antibody.

C26-6CK tumor [3] = experiment: Therapeutic effect of CpG 1668+indomethacin in the C26-6CK tumor model (Example X); assay type: in vivo, BALB/c mice; settings: C26-6CK s.c.; 5 μg CpG 1668 intra-tumorally Day 7, 14, 21; indomethacin 5 μg/ml in drinking water day 5 to 28
C26-6CK tumor [4] = experiment: Therapeutic effect in the C26-6CK tumor model (Example V)
Experimental: • 1×10^5 C26-6CK tumor cells were implanted s.c. at Day 0 in groups of seven 8 week-old female BALB/c mice and treated as follow: • 10 μg of CpG 1668 were injected peri- (when tumor too small) or intratumorally at Day 7, 14, and 21. • 250 μg anti-IL10R purified antibody were injected intraperitoneally twice a week starting at Day 7 (stop Day 24).
(§1) Tumor development was assessed three times a week by palpation and tumors measured using a caliper with tumor volume=I^2×L×0.4, I being the small diameter and L the large diameter. Mice were sacrificed when tumors exceeded 1500 mm^3 or for humane criteria.

B16F0 melanoma tumor = experiment: Therapeutic effect in the B16F0 melanoma tumor model (Example VII)
Experimental: • 5×10^4 B16F0 tumor cells were implanted s.c. at Day 0 in groups of seven 8 week-old female C57BL/6 mice and treated as follow: • 5 μg of CpG 1668 were injected intra-tumorally at Day 7, 14, and 21. • 250 μg anti-IL10R purified antibody were injected intraperitoneally at Day 7, 14, and 21. Control antibody was purified GL113 antibody.
as §1

[5] = test system: C26-6CK tumor-infiltrating dendritic cells; experiment: Activation of C26-6CK tumor-infiltrating DC with LPS, IFNγ and anti-CD40, compared with bone marrow-derived DC (Example I); assay type: cell-based, mouse
Bone marrow-derived DC = experiment: Activation of bone marrow-derived DC cultured with C26 tumor supernatant (Example IX); assay type: cell-based, mouse; settings: 10% v/v supernatant, indomethacin 1 μg/ml during supernatant preparation, anti-IL10R 10 μg/ml
Experimental: Bone marrow-derived DCs were obtained by culture of bone marrow progenitors with GM-CSF and TNFα for 5 days in the presence or absence of 10% v/v of a supernatant from C26 tumors. To prepare tumor supernatant, 0.5 cm C26 tumors grown subcutaneously in BALB/c mice were excised and minced, then cultured for 48 hours in 10 ml DMEM. The resulting supernatant was filtered at 0.2 μm and frozen before use. This supernatant contained 0.25 ng/ml IL-10 and 50 ng/ml PGE2, as determined by specific ELISA (R&D Systems). In order to inhibit PGE2 synthesis in the supernanant, the inhibitor of cyclo-oxygenase indomethacin (Sigma) was added at 1 μg/ml during the 48 h culture.
After 5 days, bone-marrow DC were activated with different combinations of optimal doses of LPS, IFNγ and anti-CD40 antibody in the presence or absence of 10 μg/ml anti-IL10R antibody. The activation of DC was measured by their expression of the co-stimulatory molecules CD40 and CD86 by FACS as well as by the production of IL-12 as detected by intra-cellular staining.

Molecule	IL-12 p70 production in culture supernatants (ELISA) ([1]; C26-6CK TIDC, GM-CSF 10 ng/ml, 24 h, CpG 1668 5 μg/ml, anti-IL10R 10 μg/ml)	activating tumor-infiltrating dendritic cells ([1]; Examples II and III)	MLR stimulatory capacity of tumor-infiltrating DC (thymidine incorporation) [2]	overall anti-tumor effect (C26 tumor)	mice that did not develop tumor (C26-6CK tumor [3])	mice that did not develop a tumor (C26-6CK tumor [4]; C26-6CK s.c., 10 μg CpG 1668 peri- or intratumorally Day 7, 14, 21)	mean volume of tumors versus control group (C26-6CK tumor [4]; C26-6CK s.c., after three weeks)	overall anti-tumor effect (C26-6CK tumor [4]; C26-6CK tumor model)	overall anti-tumor effect (B16F0 melanoma tumor)	response of tumor-infiltrating DC to stimulation (co-stimulatory molecules, MLR, IL-12 and TNFα) [5]	relief of the inhibition of DC activation by C26 tumor supernatant (CD40, CD86, IL-12 expression) (Bone marrow-derived DC)
CpG 1668: TLR-9 ligand in the mouse, sequence TCC-ATG-ACG-TTC-CTG-ATG-CT (SEQ ID NO: 5), MWG Biotech (TCCATGACGTTCCTGATGCT; DNA, all phosphorothioate, methylation of C not given here)	does not induce	marginal effect	minimally enhanced	marginal effect	1/7	1/7	smaller than in the control group	minor effect; also recorded: marginal effect	marginal effect		
IFNγ: cytokine IFNγ (R&D Systems)										did not respond	
COc1ccc2c(c1)c(CC(=O)O)c(C)n2C(=O)c1ccc(Cl)cc1 [indomethacin]					1/7						relieved partially
